Test results reported in patent US5304474A, “Hydrophobic peptide esters and amides” (Board of Regents, The University of Texas System, priority 1991, dated 1994).

Tests used:
[1] = test system: hemopoietic stem cells; assay: Stem cell function: splenic 125I-UdR uptake 5 d after transfer into irradiated syngeneic recipients; type: in vivo, mice; conditions: 250 micro-M
Method: Bone marrow cells or marrow and spleen cell mixtures were incubated in PBS with or without 250 micro-M Leu-Leu-OMe as above and then infused into 950 cGy irradiated syngeneic recipients. 5 d later, splenic 5-iodo-2'-deoxyuridine-^125 I (^125 I-UdR) uptake was measured as previously described (15).
To assay the effects of Leu-Leu-OMe on hemopoietic stem cells, we incubated marrow or mixtures of marrow and spleen cells in PBS with or without Leu-Leu-OMe and measured splenic ^125 I-UdR uptake 5 d after transplantation into irradiated syngeneic recipients (18). […] Since human marrow obtained for use in transplantation has variable amounts of peripheral blood contamination, we also studied the stem cell function of a mixture of murine spleen and marrow incubated with Leu-Leu-OMe. […] Histological studies were conducted of spleens from irradiated mice. B6 mice were irradiated with 950 cGy and given no marrow (irradiation control), or given syngeneic bone marrow cells that had been incubated in PBS with or without 250 micro-M Leu-Leu-OMe. 5 d later spleens were examined histologically. Irradiation control spleens were sparsely populated, with no hemopoietic elements. Recipients of marrow treated with 250 micro-M Leu-Leu-OMe had the vast majority of their splenic red pulp packed with erythroblasts, but also had numerous peritrabecular areas containing megakaryocytes and granulocytic elements.

[2] = test system: PBM; assay: 51Cr release toxicity assay; type: cell-based, human; conditions: 15 minutes exposure, 4 hour release (FIG. 7)
Method: In some experiments, toxicity of Leu-Leu-OMe for a variety of cell populations was assessed by ^51 Cr release In assays where cells obtained from suspension culture were to be used, cells were labeled with Na2^51 CrO4 (ICN, Plainview, N.Y.) for 60-90 minutes at 37° C. and then washed three times. Cells were then suspended in PBS (2.5×10^6 /ml) and incubated in microtiter plates, 50 microL/well with indicated concentrations of Leu-Leu-OMe for 15 minutes at room temperature. […] Following ^51 Cr labeling, wells were thoroughly washed and varying concentrations of Leu-Leu-OMe added in 50 microL PBS and the plates incubated for 15 minutes at room temperature.
Following such initial serum-free incubations, 200 microL/well of medium RPMI containing 10% FBS were added and the plates incubated for another 4 hours prior to removal of 100 microliters of supernatant. Radioactivity in the supernatant was measured in an auto-gamma scintillation spectrometer (Packard Instrument Co., Downers Grove, Ill.). The percent specific release was calculated from the formula: [formula] in which maximal release refers to cpm obtained in wells containing 50% lysing agent (American Scientific Products, McGraw Park, Ill.) and spontaneous release refers to cpm released by cells incubated in control medium in the absence of Leu-Leu-OMe or the lysing agent. Only experiments in which spontaneous release was […] were used for subsequent data interpretation.
In developing the data expressed in FIG. 7, cells (2.5×10^6 /ml) were exposed to the indicated concentrations of Leu-Leu-OMe for 15 minutes at room temperature, then specific ^51 Cr release during the next four hours was assessed. Data for the EBV transformed lines JM.6, SDL-G2, D8-219, and SM.4, respectively, are shown in order from top to bottom.

[3] = test system: natural killer cells (NK); assay: NK function: lysis of K562 target cells (51Cr release) after preincubation of lymphocytes with compound
Method: PBM were separated from heparinized venous blood of healthy donors by centrifugation over sodium diatrizoate-Ficoll gradients (Isolymph, Gallard-Schlesinger Chemical Mfg. Corp., Carle Place, N.Y.).
All cell exposures to the amino acids, dipeptides or their methyl esters were carried out by suspending cells in Dulbecco's phosphate buffered saline (PBS) and incubating them at room temperature with the reagent at the indicated concentration and time interval.
Percent of control cytotoxicity was calculated using the formula: [formula]

[4] = test system: B6 spleen cells (NK, allospecific cytotoxic T cells); conditions: 250 micro-M (ref. 12); cited from earlier work

With `COC(=O)[C@H](CC(C)C)NC(=O)[C@@H](N)CC(C)C` [Leu-Leu-OMe, L-leucyl-L-leucine methyl ester] the “effect on stem cell function, in words” value [1] was “had no deleterious effect on this measure of stem cell function”, the “concentration for maximal achievable 51Cr release” value [2] was “greater than 100 micromolar” and the “concentration giving detectable 51Cr release” value [2] was 25 to 50 µM. The “NK Function % Specific Lysis K562” value ([3]; 12.50 micro-M, Nil 66 (Table 14)) was 60%, the “NK Function % Specific Lysis K562” value ([3]; 25.00 micro-M, Nil 66 (Table 14)) was 12% and the “NK Function % Specific Lysis K562” value ([3]; 50 micro-M, Nil 40.8 (Table 16)) was 1.1%. The “NK Function % Specific Lysis K562” value ([3]; 50.00 micro-M, Nil 66 (Table 14)) was 2%, the “NK Function % Specific Lysis K562” value ([3]; 100.00 micro-M, Nil 66 (Table 14)) was less than 1% and the “spontaneous NK lytic units” value ([3]; 100 micromolar, 15 minutes (FIG. 8)) was “totally eliminated”. The “concentration resulting in loss of K562 target binding and complete depletion of Leu 11b stained cells” value ([3]; MP-depleted lymphocytes) was “greater than 50 micromolar”, the “concentration above which no NK function could be detected” value ([3]; MP-depleted lymphocytes, 15 minutes room temperature (FIG. 4)) was “greater than 50 micromolar” and the “Leu--Leu--OMe Sensitivity (LD50)” value ([3]; NK Cells) was 35 micro-M. The “concentration causing maximal depletion of NK” value ([3]; antibody staining (FIG. 6) and functional studies (FIG. 4)) was 100 µM, the “NK Toxicity (LD50)” value ([3]; concentration which results in 50% loss of human NK function, PBL 15 minutes at 22° C.) was 35 micro-M and the “concentration in excess of which NK toxic effects are seen” value ([3]; lymphocytes exposed 15 minutes at room temperature) was greater than 12.5 micro-M. The “mean concentration required to diminish lytic activity by 75%” value ([3]; spontaneous NK) was 35 µM and the allocytotoxicity [4] was “near total ablation of allocytotoxicity”.
